Results: US20220354957A1, “PEPTIDES TARGETING MACROPHAGES, AND CONJUGATES, COMPOSITIONS, AND USES THEREOF” (Twinpig Biolab, Inc., priority 2021, published 2022)

How the values were obtained:
[1] = system: M2 macrophages; test: Apoptosis and caspase-3 expression in THP-1-derived macrophages; format: cell-based, human
Method: THP-1 cells were differentiated into macrophages by 24 h incubation with 100 nM PMA and polarized in M2 macrophages by incubation with 20 ng/ml of IL-4 and 20 ng/ml of IL-13 for 72 h. Polarized cells were treated with increasing concentrations of TAMpep and fragments of TAMpep (0.05-20 μM) for 24 h. Cell viability was analyzed using the CCK-8 assay: CCK-8 reagent (Enzo Life Sciences) was added to each well; incubation was continued for 2 hours, and absorbance was measured at 450 nm with a microplate reader (Molecular Devices).
THP-1 cells were seeded on cover glasses in 24-well plates and differentiated into M0, M1 and M2 macrophages. Cells were treated with 1 μM TAMpepK and MpepK for 1 h and incubated for 24 h after remove of peptides. Cells were washed, fixed with 4% paraformaldehyde for 10 minutes at […] and blocked with 0.1% normal goat serum for 1 hour. The cover glasses were then incubated with anti-caspase-3 antibody (1:50, rabbit polyclonal, Abcam) overnight at 4° C., and then washed and stained with Alexa 594-labelled goat anti-rabbit lgG (1:500, Invitrogen) at 37° C. for 1 hr. The cover glasses were mounted in Vectashield mounting medium (Vector Laboratories) with DAPI to visualize nuclei. Images photographed by fluorescence microscope (Leica).

[2] = system: M2-like TAMs; test: FACS of tumor macrophages and CD8+ T cells in mouse model of melanoma; format: in vivo; settings: vs PBS group
Description: (§1) BALB/c and C57BL/6 (B6) wild-type mice were purchased from DBL. For the subcutaneous tumor model of melanoma and prostate cancer, CT26 (3×10^5 cells/mouse), B16F10 (1×10^6 cells/mouse) and TRAMP-C2 cells (1×10^6 cells/mouse) were mixed with Matrigel matrix (Corning) and inoculated subcutaneously into the right flank of the mice, and 4T1 (1×10^5 cells/mouse) cells mixed with Matrigel matrix and inoculated into a 4th mammary fat pad of the mice. TAMpepK, and MpepK peptides (200 nmol/kg) were injected intraperitoneally every 3 days, beginning at day 7 after tumor inoculation, and tumor volume was measured by electronic caliper. All tumor tissues were harvested after the end of the study and tumor weight was measured by an electronic balance.
THP-1 cells were differentiated into macrophages by a 24 h incubation with 100 nM PMA and polarized in M2 macrophages by incubation with 20 ng/ml of IL-4 and 20 ng/ml of IL-13 for 72 h. Polarized cells were treated with 50 nM TAMpep and fragments of TAMpep or Mpep and alanine library of Mpep conjugated with FITC for 1 h. To test change of macrophage population in melanoma tissue, the single cells were isolated from tumor tissue through a 40 μm nylon mesh strainer after dissociation by DNase I (1 U/mL) and collagenase D (1 mg/ml). Cells were detected on BD FACSCalibur and BD FACSCantoII instruments and analyzed by FlowJo software.

[3] = system: macrophages treated with TCM; test: Cell viability of macrophages differentiated by TCM; format: cell-based, human; settings: 1 μM
[4] = system: PC3 cells; test: Proliferation and migration of prostate cancer cells by conditioned medium of macrophages; format: cell-based, human; settings: conditioned media of M2 macrophages and M2-like TAMs pretreated with peptide
Method: To obtain conditioned media of tumor (TCM), PC3 cells were seeded at 2×10^5 cells/well in culture medium in 24-well plates (Corning Inc). After 24 hours, the medium was changed to serum-free RPMI1640 medium and the cells were incubated for 24 hours. For conditioned media of macrophages, THP-1 cells were seeded at 2×10^5 cells/well in culture medium in 24-well plates (Corning Inc) and incubated with 100 nM PMA for 24 h. Cells were polarized into M0, M1, and M2 macrophages or TAM macrophages by TCM and changed to serum-free RPMI1640 medium. After 24 hours, the medium was changed to serum-free RPMI1640 medium and the cells were incubated for 24 hours. Supernatants were harvested and clarified with syringe filters (0.2 μm, Milipore). Supernatants of PC3 cells were named tumor-conditioned medium (TCM).
Migration of prostate cancer and melanoma cells was assessed with wound healing assays. PC3 and Sk-Mel-28 cells were seeded at 2×10^5 cells/well in 24-well plates and cultured in RPMI1640 with 10% FBS. When the cells reached confluence, they were wounded by scraping across the surface of the well with a sterile micropipette tip. […] Wound areas were measured with ImageJ software (NCI, Bethesda, Md., USA). The percent of each wounded area filled by cell migration was calculated as: (mean wounded breadth—mean remaining breadth)/mean wounded breadth×100.

[5] = system: 4T1; test: 4th mammary orthotopic mouse model of breast cancer (4T1); format: in vivo
Description: as §1
Total RNA was extracted using Easy-Blue reagent. Concentrations of RNA were determined and quantified by measuring absorbance at 260 and 280 nm with a spectrophotometer. Complementary DNA (cDNA) was synthesized from total RNA using a Maxime RT PreMix kit (iNtRON). Real-time PCR analysis was performed with SYBR Green Master Mix. PCR conditions were forty-five cycles at 95° C. for 5 min, followed by 95° C. for 10 sec, 60° C. for 10 sec and 72° C. for 10 sec. mRNA expression were quantified in triplicate. Data were measured with CFX Software (Bio-Rad). GAPDH and β-actin were used as internal controls.

[6] = Cell viability test (CCK-8) of dKLA-conjugated alanine-substituted peptides; format: cell-based, human; settings: FIG. 25; read-out: cytotoxicity IC50 in M2 macrophages
Method: (§2) THP-1 monocytes were differentiated into macrophages (M0) by 24 h incubation with 100 nM phorbol 12-myristate 13-acetate (PMA, Sigma) followed by 24 h incubation in RPMI medium (Invitrogen). Macrophages were polarized in M1 macrophages (M1) by incubation with 20 ng/ml of IFN-γ (Prospec) and 100ng/m1 of LPS (Sigma). Macrophage M2 polarization(M2) was obtained by incubation with 20 ng/ml of interleukin (IL) 4 (Prospec) and 20 ng/ml of interleukin 13 (Pro spec).
(§3) […] Cell viability was analyzed using the CCK-8 assay: CCK-8 reagent (Enzo Life Sciences) was added to each well; incubation was continued for 2 hours, and absorbance was measured at 450 nm with a microplate reader (Molecular Devices).

[7] = system: M2 macrophages; test: as above; format: cell-based, human; settings: 1.5 μM, 1 hour then 24 hours, CCK-8, compared to control M2 macrophage
Method: as §2, §3

CC[C@H](C)[C@H](NC(=O)[C@H](CC(C)C)NC(=O)[C@H](C)NC(=O)[C@@H]1CCCN1C(=O)[C@H](CC(C)C)NC(=O)CNC(=O)[C@@H](NC(=O)[C@@H](NC(=O)[C@H](CC(C)C)NC(=O)[C@@H](NC(C)=O)C(C)C)[C@@H](C)O)[C@@H](C)O)C(=O)N[C@@H](CO)C(=O)N[C@@H](Cc1c[nH]c2ccccc12)C(=O)N[C@H](C(=O)N[C@@H](CCCCN)C(=O)N[C@@H](CCCNC(=N)N)C(=O)N[C@@H](CCCCN)C(=O)N[C@@H](CCCNC(=N)N)C(=O)N[C@@H](CCC(N)=O)C(=O)N[C@@H](CCC(N)=O)C(=O)NCC(=O)NCC(=O)NCC(=O)NCC(=O)N[C@@H](CO)C(=O)N[C@H](CCCCN)C(=O)N[C@H](CC(C)C)C(=O)N[C@H](C)C(=O)N[C@H](CCCCN)C(=O)N[C@H](CC(C)C)C(=O)N[C@H](C)C(=O)N[C@H](CCCCN)C(=O)N[C@H](CCCCN)C(=O)N[C@H](CC(C)C)C(=O)N[C@H](C)C(=O)N[C@H](CCCCN)C(=O)N[C@H](CC(C)C)C(=O)N[C@H](C)C(=O)N[C@H](CCCCN)C(=O)O)[C@@H](C)CC [MpepK]
expression of caspase-3 in M2 macrophages compared to other subtype macrophages ([1]; 1 μM, 1 h, then 24 h): increased | apoptosis in M2 macrophages compared to M0 and M1 macrophages ([1]; 0.01-10 μM): induced apoptosis | exhaustion markers, such as PD-1 and LAGS, in CD8+ T cells ([2]; melanoma model): significantly reduced | M1-like TAMs (F4/80+ and CD86+ cells) ([2]; melanoma tumor tissue): no change | M1/M2 ratio ([2]; melanoma tumor tissue): significantly increased | M2-like TAMs (F4.80+ and CD206+ cells) ([2]; melanoma tumor tissue): reduced | apoptosis in macrophages treated with TCM [3]: induced apoptosis | proliferation of PC3 cells [4]: significantly reduced | migration of PC3 cells ([4]; wound healing): significantly reduced | gene expression of arginase 1 (M2 macrophage marker) ([5]; compared to PBS): significantly reduced | lung metastasis ([5]; vs PBS group): decreased | tumor volume ([5]; vs PBS group): decreased | tumor weight ([5]; vs PBS group): decreased | IC50 [6]: 1120 nM | cytotoxic effect in M2 macrophages [7]: significant cytotoxic effects
